Type in all cases: biochemical
The target in experiment [1] is T1, D-alanine aminotransferase (Dat) (Staphylococcus aureus, UniProt A0A0H2XHU6).
T1 construct: recombinant HIS-tagged wild-type Dat from JE2, expressed from pET28b in E. coli
T1 sequence (A0A0H2XHU6 1-282): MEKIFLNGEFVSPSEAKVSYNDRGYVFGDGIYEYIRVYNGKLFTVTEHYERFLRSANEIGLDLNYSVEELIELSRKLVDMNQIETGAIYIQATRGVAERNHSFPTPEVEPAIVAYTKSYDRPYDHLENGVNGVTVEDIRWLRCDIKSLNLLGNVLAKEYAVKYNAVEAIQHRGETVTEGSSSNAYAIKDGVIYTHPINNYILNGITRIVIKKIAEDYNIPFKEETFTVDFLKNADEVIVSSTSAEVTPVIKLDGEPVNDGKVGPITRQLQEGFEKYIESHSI
Briefly: lactate dehydrogenase-coupled assay of pyruvate production from D-alanine, A340.

For experiment [2], the target named is T2, D-alanine aminotransferase (Dat-S180F) (Staphylococcus aureus, UniProt A0A0H2XHU6, S180F).
T2 construct: recombinant HIS-tagged Dat-S180F from BCDA1, expressed from pET28b in E. coli
T2 sequence (A0A0H2XHU6 1-282 S180F): T1 sequence (A0A0H2XHU6 1-282)
The description is as above.

Experiment [3] addresses T3, D-alanine aminotransferase (Dat) (Staphylococcus aureus, UniProt Q5HF24).
T3 construct: recombinant HIS-tagged wild-type Dat
Briefly: lactate dehydrogenase-coupled assay, turnover of […] D-alanine to pyruvate.

Results on 2 compounds are retold here after paper PMC12723384, “A S180F substitution in D-alanine aminotransferase confers resistance to β-chloro-D-alanine in Staphylococcus aureus” (The Journal of Biological Chemistry, 2025).

As usually defined, the IC50 is the concentration needed to halve the response being measured. Turning to `N[C@H](CCl)C(=O)O` [BCDA, β-chloro-D-alanine], the IC50 in experiment [1] came out at 96.8 ± 12 µM; in experiment [2], 34 ± 4.7 µM. `C[C@@H](N)C(=O)O` [D-alanine]: the “lactate dehydrogenase-coupled assay, turnover of 25 mM D-alanine to pyruvate” value in experiment [3] is “comparison of wild-type Dat (green) and Dat-S180F (violet) enzymatic production of pyruvate from D-alanine”.
